Laboratory results published in ChEMBL document CHEMBL4364246, “Synthesis and biological evaluation of 5-aminoethyl benzophenanthridone derivatives as DNA topoisomerase IB inhibitors” (Eur J Med Chem, 2019).

Key:
[1] = test system: SNB-75; assay: Growth inhibition of human SNB75 cells incubated for 48 hrs by sulforhodamine B assay; assay type: functional; settings: SNB-75, 48 h
[2] = test system: A498; assay: Growth inhibition of human A498 cells incubated for 48 hrs by sulforhodamine B assay; assay type: functional; settings: A498, 48 h
[3] = test system: IGROV-1; assay: Growth inhibition of human IGROV1 cells incubated for 48 hrs by sulforhodamine B assay; assay type: functional; settings: IGROV-1, 48 h
[4] = test system: SF-268; assay: Growth inhibition of human SF268 cells incubated for 48 hrs by sulforhodamine B assay; assay type: functional; settings: SF-268, 48 h
[5] = target: T1, DNA topoisomerase 1 (Homo sapiens) (UniProt P11387); assay: Inhibition of recombinant TOP1 (unknown origin) using 3'-[32P]-labeled 117 bp DNA oligonucleotide assessed as […] TOP1-mediated DNA cleavage incubated for 20 mins by PAGE analysis relative to 1 uM CPT
T1 sequence (whole entry): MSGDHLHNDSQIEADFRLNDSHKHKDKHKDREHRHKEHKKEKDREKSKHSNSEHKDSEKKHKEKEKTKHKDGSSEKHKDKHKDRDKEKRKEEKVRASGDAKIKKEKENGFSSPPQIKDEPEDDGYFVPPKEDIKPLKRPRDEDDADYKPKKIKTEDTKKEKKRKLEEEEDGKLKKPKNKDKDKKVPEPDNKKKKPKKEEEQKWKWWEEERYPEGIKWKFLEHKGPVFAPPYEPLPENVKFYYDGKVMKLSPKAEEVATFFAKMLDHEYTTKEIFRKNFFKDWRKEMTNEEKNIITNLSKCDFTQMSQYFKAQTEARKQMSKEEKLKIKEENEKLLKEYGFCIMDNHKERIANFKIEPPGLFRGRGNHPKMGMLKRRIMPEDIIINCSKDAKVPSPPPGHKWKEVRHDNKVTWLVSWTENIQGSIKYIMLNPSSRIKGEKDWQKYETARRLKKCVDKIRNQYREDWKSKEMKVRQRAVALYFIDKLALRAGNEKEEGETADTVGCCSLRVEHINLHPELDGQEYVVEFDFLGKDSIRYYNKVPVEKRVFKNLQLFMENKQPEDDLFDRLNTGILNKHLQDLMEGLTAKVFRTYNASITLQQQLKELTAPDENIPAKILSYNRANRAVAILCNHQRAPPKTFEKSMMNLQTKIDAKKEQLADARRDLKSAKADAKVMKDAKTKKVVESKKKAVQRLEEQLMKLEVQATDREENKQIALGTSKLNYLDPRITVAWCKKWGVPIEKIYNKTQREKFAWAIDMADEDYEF

[6] = test system: NCI/ADR-RES; assay: Growth inhibition of human NCI/ADR-RES cells incubated for 48 hrs by sulforhodamine B assay; assay type: functional
[7] = test system: TK-10; assay: Growth inhibition of human TK10 cells incubated for 48 hrs by sulforhodamine B assay; assay type: functional; settings: TK-10, 48 h
[8] = test system: SK-MEL-5; assay: Growth inhibition of human SK-MEL-5 cells incubated for 48 hrs by sulforhodamine B assay; assay type: functional; settings: SK-MEL-5, 48 h
[9] = test system: SK-MEL-28; assay: Growth inhibition of human SK-MEL-28 cells incubated for 48 hrs by sulforhodamine B assay; assay type: functional; settings: SK-MEL-28, 48 h
[10] = test system: PC-3; assay: Growth inhibition of human PC3 cells incubated for 48 hrs by sulforhodamine B assay; assay type: functional; settings: PC-3, 48 h
[11] = test system: NCI-H322M; assay: Growth inhibition of human NCI-H322M cells incubated for 48 hrs by sulforhodamine B assay; assay type: functional
[12] = test system: CCRF-CEM; assay: Growth inhibition of human CCRF-CEM cells incubated for 48 hrs by sulforhodamine B assay; assay type: functional
[13] = test system: NCI-H23; assay: Growth inhibition of human NCI-H23 cells incubated for 48 hrs by sulforhodamine B assay; assay type: functional; settings: NCI-H23, 48 h
[14] = test system: HCC 2998; assay: Growth inhibition of human HCC2998 cells incubated for 48 hrs by sulforhodamine B assay; assay type: functional; settings: HCC 2998, 48 h
[15] = test system: ACHN; assay: Growth inhibition of human ACHN cells incubated for 48 hrs by sulforhodamine B assay; assay type: functional
[16] = test system: SR; assay: Growth inhibition of human SR cells incubated for 48 hrs by sulforhodamine B assay; assay type: functional
[17] = test system: SK-MEL-2; assay: Growth inhibition of human SK-MEL-2 cells incubated for 48 hrs by sulforhodamine B assay; assay type: functional; settings: SK-MEL-2, 48 h
[18] = test system: DU-145; assay: cells; settings: Homo sapiens, DU-145, 72 h
[19] = test system: SN12C; assay: Growth inhibition of human SN12C cells incubated for 48 hrs by sulforhodamine B assay; assay type: functional
[20] = test system: HOP-62; assay: Growth inhibition of human HOP62 cells incubated for 48 hrs by sulforhodamine B assay; assay type: functional; settings: HOP-62, 48 h
[21] = test system: HCT-116; assay: cells; settings: Homo sapiens, HCT-116, 72 h
[22] = test system: HCT-116; assay: Growth inhibition of human HCT116 cells incubated for 48 hrs by sulforhodamine B assay; assay type: functional; settings: HCT-116, 48 h
[23] = test system: MCF7; assay: Growth inhibition of human MCF7 cells incubated for 48 hrs by sulforhodamine B assay; assay type: functional; settings: MCF7, 48 h
[24] = test system: SK-OV-3; assay: Growth inhibition of human SKOV3 cells incubated for 48 hrs by sulforhodamine B assay; assay type: functional; settings: SK-OV-3, 48 h
[25] = test system: DU-145; assay: Growth inhibition of human DU145 cells incubated for 48 hrs by sulforhodamine B assay; assay type: functional; settings: DU-145, 48 h
[26] = test system: HOP-92; assay: Growth inhibition of human HOP92 cells incubated for 48 hrs by sulforhodamine B assay; assay type: functional; settings: HOP-92, 48 h
[27] = test system: NCI-H522; assay: Growth inhibition of human NCI-H522 cells incubated for 48 hrs by sulforhodamine B assay; assay type: functional; settings: NCI-H522, 48 h
[28] = test system: HT-29; assay: Growth inhibition of human HT-29 cells incubated for 48 hrs by sulforhodamine B assay; assay type: functional; settings: HT-29, 48 h
[29] = target: T1, DNA topoisomerase 1 (Homo sapiens); assay: Inhibition of recombinant TOP1 (unknown origin) using 3'-[32P]-labeled 117 bp DNA oligonucleotide assessed as TOP1-mediated DNA cleavage by measuring induction and stabilization of cleavage sites 17, 35 and 79 incubated for 20 mins by PAGE analysis
[30] = test system: OVCAR-8; assay: Growth inhibition of human OVCAR8 cells incubated for 48 hrs by sulforhodamine B assay; assay type: functional; settings: OVCAR-8, 48 h
[31] = test system: HCT-15; assay: Growth inhibition of human HCT15 cells incubated for 48 hrs by sulforhodamine B assay; assay type: functional; settings: HCT-15, 48 h
[32] = test system: COLO 205; assay: Growth inhibition of human COLO205 cells incubated for 48 hrs by sulforhodamine B assay; assay type: functional; settings: COLO 205, 48 h
[33] = test system: BT-549; assay: Growth inhibition of human BT549 cells incubated for 48 hrs by sulforhodamine B assay; assay type: functional; settings: BT-549, 48 h
[34] = test system: SNB-19; assay: Growth inhibition of human SNB19 cells incubated for 48 hrs by sulforhodamine B assay; assay type: functional; settings: SNB-19, 48 h
[35] = test system: MDA-MB-231; assay: Growth inhibition of human MDA-MB-231 cells incubated for 48 hrs by sulforhodamine B assay; assay type: functional; settings: MDA-MB-231, 48 h
[36] = test system: KM12; assay: Growth inhibition of human KM12 cells incubated for 48 hrs by sulforhodamine B assay; assay type: functional; settings: KM12, 48 h

| Compound | GI50 [1] [nM] | GI50 [2] [nM] | GI50 [3] [nM] | GI50 [4] [nM] | inhibition [5] [%] | GI50 [6] [nM] | GI50 [7] [nM] | GI50 [8] [nM] | GI50 [9] [nM] | GI50 [10] [nM] | GI50 [11] [nM] | GI50 [12] [nM] | GI50 [13] [nM] | GI50 [14] [nM] | GI50 [15] [nM] | GI50 [16] [nM] | GI50 [17] [nM] | GI50 [18] [nM] | GI50 [19] [nM] | GI50 [20] [nM] | also measured |
| --- | --- | --- | --- | --- | --- | --- | --- | --- | --- | --- | --- | --- | --- | --- | --- | --- | --- | --- | --- | --- | --- |
| COc1cc2c(=O)n(CCN)c3c4cc5c(cc4ccc3c2cc1OC)OCO5 | 596 | 1230 | 500 | 442 | 50 to 75 | 1010 | 1350 | 614 | 3050 | 532 | 990 | 150 | 451 | 1020 | 366 | 90.7 | 3010 | 14 | 739 | 399 | GI50 [21]: 290 nM; GI50 [22]: 285 nM; GI50 [23]: 164 nM; GI50 [24]: 1240 nM; GI50 [25]: 527 nM; GI50 [26]: 3560 nM; GI50 [27]: 87.5 nM; GI50 [28]: 168 nM; Activity [29]: Dose-dependent effect; GI50 [30]: 930 nM; GI50 [31]: 420 nM; GI50 [32]: 290 nM; GI50 [33]: 918 nM; GI50 [34]: 398 nM; GI50 [35]: 1280 nM; GI50 [36]: 1100 nM |
| CNCCn1c(=O)c2cc(OC)c(OC)cc2c2ccc3cc4c(cc3c21)OCO4 | 88.5 | 127 | 145 | 90.3 | 75 to 95 | 165 | 316 | 90.9 | 573 | 112 | 147 | 20.1 | 90.6 | 156 | 85.6 | 17.3 | 393 | 2 | 171 | 43.9 | GI50 [21]: 36 nM; GI50 [22]: 51.5 nM; GI50 [23]: 29.2 nM; GI50 [24]: 157 nM; GI50 [25]: 130 nM; GI50 [26]: 184 nM; GI50 [27]: 27.4 nM; GI50 [28]: 50.8 nM; Activity [29]: Dose-dependent effect; GI50 [30]: 132 nM; GI50 [31]: 116 nM; GI50 [32]: 60.5 nM; GI50 [33]: 202 nM; GI50 [34]: 116 nM; GI50 [35]: 362 nM; GI50 [36]: 238 nM |
